Measurements from US10653704B2, “Inhalable formulation” (Teva Branded Pharmaceutical Products R&D, Inc., priority 2014, dated 2020).

What was measured:
Type in all cases: physicochemical
[1] = Particle size distribution by Malvern, conditioning studies untreated versus treated
Experimental: Fluticasone propionate was conditioned in a drug-addition vessel. A 5% concentration of fluticasone propionate in HFA134a was treated at 40° C. for 48-72 h with a gentle rocking motion. HFA134a was vented and the remaining material was assessed in regard to its amorphous content.

[2] = Amorphous content after conditioning in HFA134a
Experimental: Heating is performed at a temperature of 30-50° C., more preferably at a temperature of 35-45° C., and most preferably at a temperature of 38-42° C. The heating step, in the presence of the propellant, is a conditioning step for the API, in order to reduce the amorphous content of the API, without affecting the PSD. Amorphous content may be determined by solution microcalorimetry. Fluticasone propionate was conditioned in a drug-addition vessel. A 5% concentration of fluticasone propionate in HFA134a was treated at 40° C. for 48-72 h with a gentle rocking motion. HFA134a was vented and the remaining material was assessed in regard to its amorphous content.

[3] = Scanning electron microscope images pre- and post-conditioning; settings: post-conditioning versus pre-conditioning, Experiments 1 and 2
Source text: FIGS. 1 and 2 show scanning electron microscope images of fluticasone propionate, pre-conditioning (the first image in each Figure) and post-conditioning (the second image in each Figure). FIGS. 1 and 2 are taken from Experiments 1 and 2 in Table 1 and show scanning electron microscopic images of fluticasone propionate, pre-conditioning (the first image in each Figure) and post-conditioning (the second image in each Figure).

[4] = Particle size distribution by Malvern, conditioning studies untreated versus treated; remark: listed apart in the source
[5] = Experiment 1, 5% in HFA134a, 40° C. for 48-72 h (with agitation)
[6] = Experiment 1, 5% in HFA134a, 40° C. for 72 h (with agitation)
[7] = Experiment 2, 5% in HFA134a, 40° C. for 48-72 h (with agitation)
[8] = Experiment 1, Control (untreated)
[9] = Experiment 2, Control (untreated)

With `CCC(=O)O[C@]1(C(=O)SCF)[C@H](C)C[C@H]2[C@@H]3C[C@H](F)C4=CC(=O)C=C[C@]4(C)[C@@]3(F)[C@@H](O)C[C@@]21C` [fluticasone propionate] the “Particle size distribution by Malvern D10” value [1, 5] was 0.6 μm, the “Particle size distribution by Malvern D90” value [1, 5] was 3.2 μm and the “Particle size distribution by Malvern D10” value [1, 6] was 0.6 μm. For the same molecule, the “Particle size distribution by Malvern D90” value [1, 6] was 2.9 μm, the “Particle size distribution by Malvern D10” value [1, 7] was 0.7 μm and the “Particle size distribution by Malvern D50” value [1, 7] was 2.0 μm. It also gave an Amorphous content [2, 5] of 2.3%, an Amorphous content [2, 6] of 1.1% and an Amorphous content [2, 8] of 7.2%. For the same molecule, the Amorphous content [2, 7] was 1.1%, the Amorphous content [2, 9] was 2.3% and the “Crystallinity by SEM images” value [3] was “increased crystallinity”. The “Particle size distribution by Malvern D50” value [4, 5] was 1.5 μm, the “Particle size distribution by Malvern D50” value [4, 6] was 1.4 μm and the “Particle size distribution by Malvern D10” value [4, 8] was 0.6 μm. For the same molecule, the “Particle size distribution by Malvern D50” value [4, 8] was 1.5 μm, the “Particle size distribution by Malvern D90” value [4, 8] was 3.2 μm and the “Particle size distribution by Malvern D90” value [4, 7] was 4.7 μm. The “Particle size distribution by Malvern D10” value [4, 9] was 0.6 μm, the “Particle size distribution by Malvern D50” value [4, 9] was 1.7 μm and the “Particle size distribution by Malvern D90” value [4, 9] was 5.0 μm.
